ChEMBL document CHEMBL1135507, “II. Synthesis and biological evaluation of some bioisosteres and congeners of the antitumor agent, 2-(4-[(7-chloro-2-quinoxalinyl)oxy]phenoxy)propionic acid (XK469)” (2002)
Calls of active or inactive are those of the source. The rule behind the calls is not given here.

Legend:
Mus musculus [1] = assay: […] cytotoxicity against advanced stage pancreatic ductal adenocarcinoma 03 after the administration of 7 injections (iv) at a dose of 560(mg/kg) in 7 Mice; format: functional
Mus musculus [2] = assay: […] cytotoxicity against advanced stage pancreatic ductal adenocarcinoma 03 after the administration of 7 injections (iv) at a dose of 560(mg/kg); format: functional
[3] = […] cytotoxicity against resistant mammary adenocarcinoma-17/adr(M17/adr) after the administration of 6 injections (iv) at a dose of 450 (mg/kg) in 5 Mice; format: functional, Mus musculus
[4] = In vitro cytotoxicity against resistant mammary adenocarcinoma-17/adr(M17/adr) after the administration of 6 injections (iv) at a dose of 450 (mg/kg); format: functional, Mus musculus
Mus musculus [5] = assay: […] cytotoxicity against advanced stage pancreatic ductal adenocarcinoma 03 after the administration of 6 injections (iv) at a dose of 480 (mg/kg) in 4 Mice; format: functional
Mus musculus [6] = assay: […] cytotoxicity against advanced stage pancreatic ductal adenocarcinoma 03 after the administration of 6 injections (iv) at a dose of 480 (mg/kg); format: functional
[7] = In vitro cytotoxicity against resistant mammary adenocarcinoma-17/adr(M17/adr) after the administration of 7 injections (iv) at a dose of 324(mg/kg) in 5 Mice; format: functional, Mus musculus
[8] = In vitro cytotoxicity against resistant mammary adenocarcinoma-17/adr(M17/adr) after the administration of 7 injections (iv) at a dose of 324(mg/kg); format: functional, Mus musculus
[9] = In vitro cytotoxicity against resistant mammary adenocarcinoma-17/adr(M17/adr) after the administration of 6 injections (iv) at a dose of 300 mg/kg in 5 Mice; format: functional, Mus musculus
[10] = In vitro cytotoxicity against resistant mammary adenocarcinoma-17/adr(M17/adr) after the administration of 6 injections (iv) at a dose of 300 mg/kg; format: functional, Mus musculus
Mus musculus [11] = assay: […] cytotoxicity against advanced stage pancreatic ductal adenocarcinoma 03 after the administration of 7 injections (iv) at a dose of 336(mg/kg) in 5 Mice; format: functional
Mus musculus [12] = assay: […] cytotoxicity against advanced stage pancreatic ductal adenocarcinoma 03 after the administration of 7 injections (iv) at a dose of 336(mg/kg); format: functional
Mus musculus [13] = assay: […] cytotoxicity against advanced stage pancreatic ductal adenocarcinoma 03 after the administration of 5 injections (iv) at a dose of 450 (mg/kg) in 5 mice; format: functional
Mus musculus [14] = assay: […] cytotoxicity against advanced stage pancreatic ductal adenocarcinoma 03 after the administration of 5 injections (iv) at a dose of 450 (mg/kg); format: functional
Mus musculus [15] = assay: […] cytotoxicity against advanced stage pancreatic ductal adenocarcinoma 03 after the administration of 5 injections (iv) at a dose of 450 (mg/kg) in 5 Mice; format: functional
[16] = In vitro cytotoxicity against resistant mammary adenocarcinoma-17/adr(M17/adr) after the administration of 6 injections (iv) at a dose of 352(mg/kg) in 5 Mice; format: functional, Mus musculus
[17] = In vitro cytotoxicity against resistant mammary adenocarcinoma-17/adr(M17/adr) after the administration of 6 injections (iv) at a dose of 352(mg/kg); format: functional, Mus musculus
[18] = In vitro cytotoxicity against resistant mammary adenocarcinoma-17/adr(M17/adr) after the administration of 7 injections (iv) at a dose of 462 (mg/kg) in 4 Mice; format: functional, Mus musculus
Mus musculus [19] = assay: […] cytotoxicity against resistant mammary adenocarcinoma-17/adr(M17/adr) after the administration of 7 injections (iv) at a dose of 462 (mg/kg);Activity value is none; format: functional, organism-based
[20] = […] cytotoxicity against resistant mammary adenocarcinoma-17/adr(M17/adr) after the administration of 7 injections (iv) at a dose of 462 (mg/kg); format: functional, Mus musculus
[21] = In vitro cytotoxicity against resistant mammary adenocarcinoma-17/adr(M17/adr) after the administration of 7 injections (iv) at a dose of 370 (mg/kg) in 5 Mice; format: functional, Mus musculus
[22] = In vitro cytotoxicity against resistant mammary adenocarcinoma-17/adr(M17/adr) after the administration of 7 injections (iv) at a dose of 370 (mg/kg); format: functional, Mus musculus
[23] = […] cytotoxicity against resistant mammary adenocarcinoma-17/adr(M17/adr) after the administration (iv) of 13 injections at a dose of 364(mg/kg) in 5 Mice; format: functional, Mus musculus
[24] = […] cytotoxicity against resistant mammary adenocarcinoma-17/adr(M17/adr) after the administration (iv) of 13 injections at a dose of 364(mg/kg); format: functional, Mus musculus
[25] = In vitro cytotoxicity against resistant mammary adenocarcinoma-17/adr(M17/adr) after the administration of 7 injections (iv) at a dose of 455 (mg/kg) in 3 Mice; format: functional, Mus musculus
Mus musculus [26] = assay: […] cytotoxicity against resistant mammary adenocarcinoma-17/adr(M17/adr) after the administration of 7 injections (iv) at a dose of 455 (mg/kg); Activity value is none; format: functional, organism-based
[27] = In vitro cytotoxicity against resistant mammary adenocarcinoma-17/adr(M17/adr) after the administration of 7 injections (iv) at a dose of 455 (mg/kg); format: functional, Mus musculus

CC(Oc1ccc(Oc2ccc3ccc(Cl)cc3n2)cc1)C(=O)O (stereo not drawn)
Cures (Mus musculus [1]): 0 | Drug deaths (Mus musculus [1]): 0 | Activity rating (Mus musculus [2]): 2.8 | Body weight loss at nadir (Mus musculus [2]): 3.7% | Log tumor cell kill (Mus musculus [2]): 2.3 | T/C (Mus musculus [2]): 14.1%

COc1ccc2ccc(Oc3ccc(OC(C)C(=O)O)cc3)nc2c1 (stereo not drawn)
Cures [3]: 0 | Drug deaths [3]: 0 | Activity rating [4]: >2.8 | Body weight loss at nadir [4]: -5% | Log tumor cell kill [4]: 3 | T/C [4]: 0%

CC(Oc1ccc(Oc2ccc3ccc(Br)cc3n2)cc1)C(=O)O (stereo not drawn)
Cures (Mus musculus [5]): 0 | Drug deaths (Mus musculus [5]): 0 | Activity rating (Mus musculus [6]): >2.8 | Body weight loss at nadir (Mus musculus [6]): 5.9% | Log tumor cell kill (Mus musculus [6]): 3.1 | T/C (Mus musculus [6]): 2.8%

CC(Oc1ccc(Oc2cnc3ccc(Cl)cc3n2)cc1)C(=O)O (stereo not drawn)
Cures (Mus musculus [1]): 0 | Drug deaths (Mus musculus [1]): 0 | Activity rating (Mus musculus [2]): 2.8 | Body weight loss at nadir (Mus musculus [2]): 2.5% | Log tumor cell kill (Mus musculus [2]): 2 | T/C (Mus musculus [2]): 24.5%

CC(Oc1ccc(Oc2ccc3ccc(F)cc3n2)cc1)C(=O)O (racemic)
Cures [7]: 0 | Drug deaths [7]: 0 | Activity rating [8]: 1.9 | Body weight loss at nadir [8]: -1.6% | Log tumor cell kill [8]: 1.5 | T/C [8]: 14%

CC(Oc1ccc(Oc2ccc3ccc(Cl)cc3n2)cc1)C(=O)O (racemic)
Cures [9]: 0 | Drug deaths [9]: 0 | Activity rating [10]: >2.8 | Body weight loss at nadir [10]: -10.6% | Log tumor cell kill [10]: 3.8 | T/C [10]: 0% | Cures (Mus musculus [11]): 0 | Drug deaths (Mus musculus [11]): 0 | Activity rating (Mus musculus [12]): 2.8 | Body weight loss at nadir (Mus musculus [12]): -8.9% | Log tumor cell kill (Mus musculus [12]): 2.6 | T/C (Mus musculus [12]): 0%

COc1ccc2ccc(Oc3ccc(OC(C)C(=O)O)cc3)nc2c1 (racemic)
Cures (Mus musculus [13]): 0 | Activity rating (Mus musculus [14]): 1.2 | Body weight loss at nadir (Mus musculus [14]): -2% | Log tumor cell kill (Mus musculus [14]): 0.8 | T/C (Mus musculus [14]): 45% | Drug deaths (Mus musculus [15]): 0

CC(Oc1ccc(Oc2ccc3ccc(Br)cc3n2)cc1)C(=O)O (racemic)
Cures [16]: 0 | Drug deaths [16]: 0 | Activity rating [17]: >2.8 | Body weight loss at nadir [17]: -5.5% | Log tumor cell kill [17]: 4.2 | T/C [17]: 0%

CC(Oc1ccc(Oc2nc3cc(Cl)ccc3o2)cc1)C(=O)O (racemic)
Cures [18]: 0 | Drug deaths [18]: 0 | Log tumor cell kill (Mus musculus [19]): inactive | Activity rating [20]: <0.7 | Body weight loss at nadir [20]: -2.3% | T/C [20]: >100%

CC(Oc1ccc(Oc2ccc3ccc(I)cc3n2)cc1)C(=O)O (racemic)
Cures [21]: 0 | Drug deaths [21]: 0 | Activity rating [22]: 1.9 | Body weight loss at nadir [22]: -4% | Log tumor cell kill [22]: 2.1 | T/C [22]: 2%

CC(Oc1ccc(Oc2cnc3ccc(Cl)cc3n2)cc1)C(=O)O (racemic)
Cures [23]: 0 | Drug deaths [23]: 0 | Activity rating [24]: >2.8 | Body weight loss at nadir [24]: 0% | Log tumor cell kill [24]: 2.82 | T/C [24]: 10.3%

CC(Oc1ccc(Oc2nc3ccc(Cl)cc3o2)cc1)C(=O)O (racemic) [FENOXAPROP]
Cures [25]: 0 | Drug deaths [25]: 0 | Log tumor cell kill (Mus musculus [26]): inactive | Activity rating [27]: <0.7 | Body weight loss at nadir [27]: 0% | T/C [27]: >100%
